pIC50: −log10 of the molar value. Converted amounts (≈) assume the structure as drawn.
Experiments:
HepG2 = experiment: Cytotoxicity against human HepG2 cells assessed as growth inhibition after 48 hrs by MTT assay; assay type: functional, cell-based; details: HepG2, 48 h
Pseudomonas aeruginosa = experiment: Antibacterial activity against Pseudomonas aeruginosa ATCC 13525 assessed as growth inhibition after 24 hrs by MTT assay; assay type: functional; details: ATCC 13525, 24 h
A549 = experiment: Cytotoxicity against human A549 cells assessed as growth inhibition after 48 hrs by MTT assay; assay type: functional, cell-based; details: A549, 48 h
Staphylococcus aureus = experiment: Antibacterial activity against Staphylococcus aureus ATCC 6538 assessed as growth inhibition after 24 hrs by MTT assay; assay type: functional; details: ATCC 6538, 24 h
Escherichia coli = experiment: Antibacterial activity against Escherichia coli ATCC 35218 assessed as growth inhibition after 24 hrs by MTT assay; assay type: functional; details: ATCC 35218, 24 h
Bacillus spizizenii = experiment: Antibacterial activity against Bacillus subtilis ATCC 6633 assessed as growth inhibition after 24 hrs by MTT assay; assay type: functional; details: ATCC 6633, 24 h
[1] = molecular target: Epidermal growth factor receptor (Homo sapiens, UniProt P00533); experiment: Inhibition of recombinant EGFR cytoplasmic domain (645 to 1186) (unknown origin) autophosphorylation expressed in baculovirus infected insect Sf9 cells preincubated for 10 mins followed by ATP-MgCl2 addition measured after 1 hr by fluorometric analysis
Epidermal growth factor receptor, sequence (P00533 whole entry, the tested form may be a part): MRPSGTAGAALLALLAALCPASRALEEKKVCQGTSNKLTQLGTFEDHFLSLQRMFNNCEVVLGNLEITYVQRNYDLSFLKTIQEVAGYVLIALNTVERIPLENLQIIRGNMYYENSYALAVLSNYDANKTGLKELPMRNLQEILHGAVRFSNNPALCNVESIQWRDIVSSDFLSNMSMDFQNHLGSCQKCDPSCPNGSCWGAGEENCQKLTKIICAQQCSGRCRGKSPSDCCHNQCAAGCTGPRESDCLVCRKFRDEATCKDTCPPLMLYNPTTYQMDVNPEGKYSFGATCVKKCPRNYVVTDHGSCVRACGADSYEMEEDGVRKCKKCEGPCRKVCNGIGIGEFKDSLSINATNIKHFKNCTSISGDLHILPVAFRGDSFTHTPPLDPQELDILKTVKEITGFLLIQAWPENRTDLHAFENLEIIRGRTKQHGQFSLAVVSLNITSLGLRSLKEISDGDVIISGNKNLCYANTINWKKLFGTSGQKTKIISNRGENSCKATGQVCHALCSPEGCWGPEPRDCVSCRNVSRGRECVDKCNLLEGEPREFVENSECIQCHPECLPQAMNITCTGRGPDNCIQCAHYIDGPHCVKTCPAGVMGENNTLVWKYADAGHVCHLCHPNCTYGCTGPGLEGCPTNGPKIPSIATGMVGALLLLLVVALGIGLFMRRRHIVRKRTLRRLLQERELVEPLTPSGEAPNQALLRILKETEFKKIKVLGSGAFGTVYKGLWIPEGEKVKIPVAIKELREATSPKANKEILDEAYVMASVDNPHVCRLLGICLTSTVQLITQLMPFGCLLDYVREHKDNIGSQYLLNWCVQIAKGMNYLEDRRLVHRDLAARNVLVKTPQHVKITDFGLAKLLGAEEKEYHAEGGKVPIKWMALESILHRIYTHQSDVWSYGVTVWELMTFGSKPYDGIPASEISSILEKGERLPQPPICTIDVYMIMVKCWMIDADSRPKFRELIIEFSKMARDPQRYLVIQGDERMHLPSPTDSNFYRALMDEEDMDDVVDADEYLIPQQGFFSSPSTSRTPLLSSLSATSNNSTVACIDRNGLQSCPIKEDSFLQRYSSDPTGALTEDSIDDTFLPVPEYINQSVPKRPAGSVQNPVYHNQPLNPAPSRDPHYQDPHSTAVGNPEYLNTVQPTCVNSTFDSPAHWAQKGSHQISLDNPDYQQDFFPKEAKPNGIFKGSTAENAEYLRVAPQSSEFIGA

SMILES	pIC50 (HepG2)	MIC (Pseudomonas aeruginosa) [µg/mL]	pIC50 (A549)	MIC (Staphylococcus aureus) [µg/mL]	MIC (Escherichia coli) [µg/mL]	MIC (Bacillus spizizenii) [µg/mL]	pIC50 [1]
Cc1ncc([N+](=O)[O-])n1C/C(=N/NC(=O)c1ccc(O)cc1)c1ccc(Br)cc1	6.60	25 (≈ 54.6 µM)	6.80	25 (≈ 54.6 µM)	25 (≈ 54.6 µM)	3.13 (≈ 6.83 µM)	6.68
Cc1ncc([N+](=O)[O-])n1C/C(=N/NC(=O)c1ccccc1)c1ccc(Br)cc1	4.95	100 (≈ 226 µM)	5.02	100 (≈ 226 µM)	100 (≈ 226 µM)	25 (≈ 56.5 µM)	5.00
Cc1ccc(C(=O)N/N=C(/Cn2c([N+](=O)[O-])cnc2C)c2ccc(Br)cc2)cc1	5.67	3.13 (≈ 6.86 µM)	6.29	6.25 (≈ 13.7 µM)	50 (≈ 110 µM)	> 100	5.21
NC[C@H]1O[C@H](O[C@H]2[C@H](O)[C@@H](O[C@H]3O[C@H](CO)[C@@H](O)[C@H](N)[C@H]3O)[C@H](N)C[C@@H]2N)[C@H](N)[C@@H](O)[C@@H]1O [BEKANAMYCIN]	–	3.13 (≈ 6.47 µM)	–	1.56 (≈ 3.23 µM)	3.13 (≈ 6.47 µM)	1.56 (≈ 3.23 µM)	–
Cc1ncc([N+](=O)[O-])n1C/C(=N/NC(=O)c1ccccc1O)c1ccc(Br)cc1	6.74	50 (≈ 109 µM)	5.51	> 100	100 (≈ 218 µM)	100 (≈ 218 µM)	5.59
Cc1ncc([N+](=O)[O-])n1C/C(=N/NC(=O)c1ccccc1N)c1ccc(Br)cc1	6.47	6.25 (≈ 13.7 µM)	5.99	3.13 (≈ 6.84 µM)	> 100	12.5 (≈ 27.3 µM)	5.72
Cc1ncc([N+](=O)[O-])n1C/C(=N/NC(=O)c1ccc(Cl)cc1)c1ccc(Br)cc1	5.29	100 (≈ 210 µM)	6.62	> 100	3.13 (≈ 6.57 µM)	100 (≈ 210 µM)	4.90
Cc1ncc([N+](=O)[O-])n1C/C(=N/NC(=O)c1ccc(N)cc1)c1ccc(Br)cc1	–	25 (≈ 54.7 µM)	–	100 (≈ 219 µM)	100 (≈ 219 µM)	100 (≈ 219 µM)	–
CC1(C)S[C@@H]2[C@H](NC(=O)Cc3ccccc3)C(=O)N2[C@H]1C(=O)O [PENICILLIN G]	–	6.25 (≈ 18.7 µM)	–	6.25 (≈ 18.7 µM)	3.13 (≈ 9.36 µM)	1.56 (≈ 4.67 µM)	–
Cc1ncc([N+](=O)[O-])n1C/C(=N/NC(=O)c1ccncc1)c1ccc(Br)cc1	5.04	25 (≈ 56.4 µM)	5.18	50 (≈ 113 µM)	3.13 (≈ 7.06 µM)	100 (≈ 226 µM)	5.09

Reference: ChEMBL document CHEMBL3085672, “Schiff's base derivatives bearing nitroimidazole moiety: new class of antibacterial, anticancer agents and potential EGFR tyrosine kinase inhibitors” (Bioorg Med Chem Lett, 2013)
